Results reported in US7169792B2, “Method of treating bacterial infections using gemifloxacin or a salt thereof and a β-lactam antibiotic” (priority 2002, dated 2007).
Where two headings read alike, the source gives them in different places.

Legend:
[1] = test system: S. saprophyticus 662; assay: checkerboard titration, gemifloxacin and amoxicillin (MIC, FIC); format: cell-based, Staphylococcus saprophyticus
Description: The concentration range tested varied for each drug/organism combination to encompass the MIC endpoints of the individual components. […] The last well (H) in column 12 was used as a positive growth control well, containing only medium and test isolate.
The bacteria were diluted to a 0.5 McFarland standard and then further diluted 1/50. Each well was inoculated with 25 μl of the isolate to give a final inoculum density of approximately 5×10^5 cfu/ml. […] After inoculation, the plates were covered with a 96 well microtitre plate lid and incubated at 35° C. in ambient air for 20–24 hours. A 10 μl aliquot of the inoculum was plated on trypticase soy agar containing 5% sheep blood to determine the purity of the final test inoculum.
Following incubation, a microtitre mirror reader (Cooke Instruments Ltd., England) was used to assist in determining the microdilution MIC endpoints. The MIC was determined as the lowest concentration of compound that inhibited visible growth of the organism.
2) S. saprophyticus 662 was obtained from the SmithKline Beecham Anti-Infectives Research Culture Collection and stored at −80° C. in 10% glycerol. Before testing, the isolate was passaged onto agar plates (trypticase soy agar containing 5% sheeps blood) from the frozen stock for two consecutive days. Cation adjusted Mueller Hinton broth (BBL, Cockeysville, Md.) was used for the isolate.
The combined effect of gemifloxacin and amoxicillin was investigated in S. saprophyticus 662 by using the checkerboard titration method described in Example 1.

[2] = test system: clinically isolated P. aeruginosa strains; assay: checkerboard method, gemifloxacin or ciprofloxacin with ceftazidime, 6 clinical isolates (Example 5); format: cell-based, Pseudomonas aeruginosa; details: for FICA: FIC of gemifloxacin; for Cgemifloxacin MIC: in combination with ceftazidime; for MIC: Pseudomonas aeruginosa, drug alone, read-out: gemifloxacin MIC
Description: (§1) Minimal inhibitory concentrations (MICs) for each separate drug were determined. For wells along the growth-no growth interface, synergy was determined by calculating the Fractional Inhibitory Concentration (FIC) index. The Fractional Inhibitory Concentration (FIC) indices were calculated using the following formula: FICindex=FICA+FICB=[A]/MICA+[B]/MICB • Wherein: • FICA(or B), is the FIC of drug A (or B) MICA (or B) is the MIC of the organism to drug A (or B) • A (or B) is concentration of drug A (or B) that is the lowest inhibitory concentration
(§2) The FIC indices were interpreted using the following criteria: • ≦0.5=Synergy • >0.5–1.0=Additive • >1.0–4.0=Indifference • >4.0=Antagonism
(§3) The test organisms were clinical isolates collected in Korea. Organisms were frozen at −70 C. prior to testing. […] Gemifloxacin or ciprofloxacin solution was dispensed alone in the first row and combined with ceftazidime in the remaining rows. Ceftazidime as also dispensed alone in the first row in the first column. Test strains of P. aeruginosa were grown for 18 h in Mueller-Hinton broth, and then these overnight cultures were diluted with the same fresh medium to the density of approximately 10^7 CFU/mL. The bacterial concentrations were determined by measuring optical density or turbidity of the suspension and were verified by standard colony counts on antibiotic-free agar plates. A diluted bacterial solution was applied to 96-well plates containing serially diluted antimicrobial agents to yield 5×10^5 CFU/mL. Plates were incubated at 35 C for 18 hours.
MICs for each separate drug were determined, and for wells along the growth-no growth interface, synergy was determined by calculating FIC Indices as in Example 4. FIC Indices were calculated and interpreted as in Example 4.

[3] = test system: clinically isolated P. aeruginosa; assay: checkerboard titration, gemifloxacin or ciprofloxacin with ceftazidime, 27 clinical isolates (Example 4); format: cell-based, Pseudomonas aeruginosa; details: for FICA: FIC of gemifloxacin; for Cgemifloxacin MIC: in combination with ceftazidime; for MIC: Pseudomonas aeruginosa, drug alone, read-out: gemifloxacin MIC
Description: as §3, with “C” for “C.”, “testing. Testing was done by the checkerboard method in 96-well plates using Mueller-Hinton broth.” for “testing.”, “Ceftazidime” for “Gemifloxacin or ciprofloxacin solution”, “was” for “was dispensed alone in the first row and combined with ceftazidime in the remaining rows. Ceftazidime as”, “10^4 CFU per spot.” for “5×10^5 CFU/mL.”, “aerobically overnight.” for “at 35 C for 18 hours.”
as §1, §2

MIC ([1]; Staphylococcus saprophyticus, 662, in presence of amoxicillin 0.125 μg/ml, read-out: gemifloxacin MIC): 0.004 µg/mL
gemifloxacin MIC ([1]; drug alone, no unit in this line (other lines μg/ml)): 0.016
Cgemifloxacin MIC ([2]; P. aeruginosa 6140): 0.5 µg/mL
Cgemifloxacin MIC ([2]; P. aeruginosa 6168): 0.0625 µg/mL
Cgemifloxacin MIC ([2]; P. aeruginosa P003): 0.125 µg/mL
MIC ([2]; P. aeruginosa 6140): 8 µg/mL
MIC ([2]; P. aeruginosa 6168): 0.5 µg/mL
MIC ([2]; P. aeruginosa P003): 2 µg/mL
MIC range ([3]; 27 clinically isolated P. aeruginosa): 0.25 to 32 µg/mL
Cgemifloxacin MIC ([3]; P. aeruginosa 6003): 0.25 µg/mL
Cgemifloxacin MIC ([3]; P. aeruginosa 6021): 0.25 µg/mL
Cgemifloxacin MIC ([3]; P. aeruginosa 6030): 0.125 µg/mL
Cgemifloxacin MIC ([3]; P. aeruginosa 6045): 1 µg/mL
Cgemifloxacin MIC ([3]; P. aeruginosa 6047): 1 µg/mL
Cgemifloxacin MIC ([3]; P. aeruginosa 6113): 0.125 µg/mL
Cgemifloxacin MIC ([3]; P. aeruginosa 6123): 0.125 µg/mL
Cgemifloxacin MIC ([3]; P. aeruginosa 6173): 0.125 µg/mL
Cgemifloxacin MIC ([3]; P. aeruginosa P032): 0.0625 µg/mL
Cgemifloxacin MIC ([3]; P. aeruginosa P036): 1 µg/mL
Cgemifloxacin MIC ([3]; P. aeruginosa P039): 0.5 µg/mL
MIC ([3]; P. aeruginosa 6003): 1 µg/mL
MIC ([3]; P. aeruginosa 6021): 1 µg/mL
MIC ([3]; P. aeruginosa 6030): 1 µg/mL
MIC ([3]; P. aeruginosa 6045): 4 µg/mL
MIC ([3]; P. aeruginosa 6047): 8 µg/mL
MIC ([3]; P. aeruginosa 6113): 0.5 µg/mL
MIC ([3]; P. aeruginosa 6123): 1 µg/mL
MIC ([3]; P. aeruginosa 6173): 1 µg/mL
MIC ([3]; P. aeruginosa P032): 0.5 µg/mL
MIC ([3]; P. aeruginosa P036): 8 µg/mL
MIC ([3]; P. aeruginosa P039): 2 µg/mL
SMILES: CO/N=C1\CN(c2nc3c(cc2F)c(=O)c(C(=O)O)cn3C2CC2)CC1CN (racemic) [gemifloxacin, (R,S)-7-(3-aminomethyl-4-methoxyiminopyrrolidin-1-yl)-1-cyclopropyl-6-fluoro-4-oxo-1,4-dihydro-1,8-naphthyridine-3-carboxylic acid]
FICA ([2]; P. aeruginosa 6140): 0.06
FICA ([2]; P. aeruginosa 6168): 0.13
FICA ([2]; P. aeruginosa P003): 0.06
FICA ([3]; P. aeruginosa 6003): 0.25
FICA ([3]; P. aeruginosa 6021): 0.25
FICA ([3]; P. aeruginosa 6030): 0.13
FICA ([3]; P. aeruginosa 6045): 0.25
FICA ([3]; P. aeruginosa 6047): 0.13
FICA ([3]; P. aeruginosa 6113): 0.25
FICA ([3]; P. aeruginosa 6123): 0.13
FICA ([3]; P. aeruginosa 6173): 0.13
FICA ([3]; P. aeruginosa P032): 0.13
FICA ([3]; P. aeruginosa P036): 0.13
FICA ([3]; P. aeruginosa P039): 0.25
